Entries after “also recorded” stand apart in the source; their conditions may differ. Counter-ions that a name gives are not always drawn.
Tests used:
[1] = system: GHD children; settings: cited from earlier work
[2] = system: GHD children; assay: Phase IIb therapeutic study in pediatric GH deficiency: height velocity after 6 months of treatment; format: in vivo, human; settings: for Delta Height Velocity, Biological Age (BA) / Delta Height Velocity, Chronological Age (CA): general population of GHD children; for height velocity in the LOW group compared with the EQUAL group, in words: 6 months of treatment; for growth (height velocity) response, GH compared with MK-0677, in words: 6 months
Method: In the Phase IIb study, 24 children were treated with 0.8 mg/kg/d MK-0677. […] This can also be expressed as a height velocity standard deviation (SD) (or standard deviations-also SD) at baseline of 0.4±2.1 and 3.5±2.0 at 6 months. […] Change in height velocity SD for chronological age was 0.4±2.1 for placebo and 3.5±2.0 for treatment with MK-0677 after 6 months at a dose of 0.8 mg/kg/d. Twenty of the 22 placebo-treated children were then treated with standard Growth Hormone (GH) treatment (daily subcutaneous injection of rhGH, 0.043 mg/kg/day). […] Therapeutic Study in Pediatric GH Deficiency: A Phase IIb study was run to determine whether or not MK-0677 could be used to treat pediatric GHD. MK-0677 was compared against placebo and rhGH injections according to the following protocol. Bone age was determined using the atlas matching method of Greulich and Pyle. Protocol: 6 months of once-daily oral sucrose formulation solution. Tables 6A-6E show the height velocity for EQUAL growth potential children treated with either 0.8 mg/kg/daily po or 0.4 mg/kg/daily po MK-0677 compared with rhGH (0.3 mg/kg/week; ˜42 μg/kg/daily sc injection). […] Values are mean (SD). Tables 7A-7C compare the height velocity for low growth potential patients (LOW) with equivalent growth potential compared to rhGH (EQUAL). Values are mean (SD).

[3] = system: hypothalamic-pituitary GH axis; assay: MK-0677 challenge test: peak serum GH after a single oral dose of MK-0677; format: in vivo, human; settings: for Peak GH response to MK-0677: baseline; for Peak GH to MK-0677: single dose 0.8 mg/kg
Method: Testing for GH secretion with MK-0677: A single, oral dose of MK-0677 is administered to a patient and sufficient blood samples are taken prior to and after administration (e.g., 15 minutes before and t=0, 30, 60, 90, and 120 minutes after administration) to measure the peak GH secretion. An example of the amount of MK-0677 administered is 0.8 mg/kg. In an aspect, the patient being tested will have fasted overnight (abstinence from all food and drink but water). [table] Subjects will report to the clinic in the morning after an overnight fast from all food and drink except water. A catheter will be inserted approximately 1 hour before the administration of MK 0677. Two baseline measures will be taken a t=−15 minutes and t=0 minutes (time at which subject is administered the dose). Subjects will be given a dose of 0.8 mg/kg MK-0677 as 2-mg tablets to be taken orally. Blood samples will be taken subsequently at t=30, 60, 90, 120 minutes. In addition at t=−15 and 120 minutes, samples will be drawn for a serum chemistry panel. At the conclusion of the test, the catheter will be removed. All blood samples will be analyzed for GH, prolactin, and cortisol by a core clinical laboratory.

[4] = Adequate GH Secretion Potential, MK-0677 0.8 mg/kg/d (N = 15)
[5] = Low GH Secretion Potential, MK-0677 0.8 mg/kg/d (N = 9)
[6] = Adequate GH Secretion Potential, GH 0.3 mg/kg/wk (N = 15)
[7] = GH after placebo 0.3 mg/kg/week (n = 20)
[8] = Low GH Secretion Potential, GH 0.3 mg/kg/wk (N = 5)

## CC(C)(N)C(=O)N[C@H](COCc1ccccc1)C(=O)N1CCC2(CC1)CN(S(C)(=O)=O)c1ccccc12 [MK-0677, Ibutamoren mesylate]
[1]; MK-0677 0.8 mg/kg/d, 24 children, Merck Phase IIb study
  growth rate at 6 months: 6.8±2.0 cm/y
[1]; MK-0677 0.8 mg/kg/d, after 6 months
  Change in height velocity SD for chronological age: 3.5±2.0
[1]; MK-0677 0.8 mg/kg/d, baseline to 6 months, 24 children
  change in growth rate: 3.4±2.1 cm/y
[2]; 0.4 mg/kg/d (n = 22)
  Delta Height Velocity, Biological Age (BA): 2.6 (1.5) standard deviations
  Delta Height Velocity, Chronological Age (CA): 2.6 (1.7) standard deviations
[2]; 0.8 mg/kg/d (n = 22)
  Delta Height Velocity, Biological Age (BA): 3.3 (1.8) standard deviations
  Delta Height Velocity, Chronological Age (CA): 3.5 (2.0) standard deviations
[2]
  height velocity in the LOW group compared with the EQUAL group, in words: lower than with the EQUAL group
[2]; [4]
  Delta height velocity: 3.4 (1.4) cm/year
  Height velocity SD for BA: 3.8 (1.3)
  Height velocity SD for CA: 3.8 (1.7)
[2]; EQUAL (N = 12), 6-Month MK 0.4 mg/kg/day
  Height Velocity: 6.2 (1.8)
[2]; EQUAL (N = 14), 6-Month MK 0.8 mg/kg/day
  Height Velocity: 7.6 (1.3)
[2]; EQUAL patient group (peak GH ≥5 μg/L to MK-0677 and baseline IGF-I >30 μg/L)
  growth (height velocity) response, GH compared with MK-0677, in words: equal to GH treatment; also recorded: does not differ significantly from that to GH; also recorded: equivalent growth response
[2]; LOW (N = 10), 6-Month MK 0.4 mg/kg/day
  Height Velocity: 5.8 (2.1)
[2]; LOW (N = 10), 6-Month MK 0.8 mg/kg/day
  Height Velocity: 5.8 (2.2)
[2]; LOW and EQUAL combined, 6-Month MK 0.4 mg/kg/day (N = 22), mean (SD)
  Height Velocity: 6.0 (1.9)
[2]; LOW and EQUAL combined, 6-Month MK 0.8 mg/kg/day (N = 24), mean (SD)
  Height Velocity: 6.9 (1.9)
[2]; LOW growth potential / severely GH deficient patients
  growth (height velocity) response, GH compared with MK-0677, in words: inadequate growth response; also recorded: less responsive
[2]; [5]
  Delta height velocity: 2.3 (2.0) cm/year
  Height velocity SD for BA: 2.6 (2.4)
  Height velocity SD for CA: 2.9 (2.5)
[2]; equivalent growth potential, after 6 months of MK-677 0.8 mg/kg (N = 14)
  Height Velocity: 7.6 (1.3) cm/year
[2]; low growth potential, after 6 months of MK-677 0.8 mg/kg (N = 10)
  Height Velocity: 5.8 (2.2) cm/year
[2]; patients with adequate GH secretion potential (Table 4B)
  growth response, GH compared with MK-0677, in words: comparable with GH and was not statistically different
[3]; Adequate GH Secretion Potential, group later given Placebo followed by rhGH (N = 15)
  Peak GH response to MK-0677: 39.2 (28.8) μg/L
[3]; Adequate GH Secretion Potential, group later treated with MK-0677 0.8 mg/kg/d (N = 15)
  Peak GH response to MK-0677: 41.3 (27.8) μg/L
[3]; Low GH Secretion Potential, group later given Placebo followed by rhGH (N = 5)
  Peak GH response to MK-0677: 2.9 (0.6) μg/L
[3]; Low GH Secretion Potential, group later treated with MK-0677 0.8 mg/kg/d (N = 9)
  Peak GH response to MK-0677: 3.2 (1.3) μg/L
[3]; equivalent growth potential, Placebo group later switched to rhGH (N = 13)
  Peak GH response to MK-0677: 51.2 (25.3) μg/L
[3]; equivalent growth potential, group later treated with MK-0677 0.8 mg/kg (N = 14)
  Peak GH response to MK-0677: 43.7 (27.1) μg/L
[3]; low growth potential, Placebo group later switched to rhGH (N = 9)
  Peak GH response to MK-0677: 6.7 (5.9) μg/L
[3]; low growth potential, group later treated with MK-0677 0.8 mg/kg (N = 10)
  Peak GH response to MK-0677: 3.6 (1.7) μg/L
[3]; All subjects (73)
  Peak GH to MK-0677: 32 ± 3.5 µg/L
[3]; High Potential (≥5 μg/L), 49 subjects
  Peak GH to MK-0677: 43 ± 30 µg/L
[3]; Low Potential (≤5 μg/L), 24 subjects
  Peak GH to MK-0677: 3.0 ± 1.0 µg/L

## rhGH: recombinant human growth hormone given as daily subcutaneous injection, standard GH therapy
[1]; rhGH 0.043 mg/kg/day daily sc, 20 children after 6 months of placebo
  height velocity SD score for chronological age: 7.6±5.6
[1]; rhGH 0.043 mg/kg/day vs MK-0677 0.8 mg/kg/d
  increase in height velocity SD, GH compared with MK-0677: twice as high
[2]
  height velocity in the LOW group compared with the EQUAL group, in words: greater in the LOW group than in the EQUAL group
[2]; [6]
  Delta height velocity: 4.9 (2.9) cm/year
  Height velocity SD for BA: 4.9 (2.6)
  Height velocity SD for CA: 5.1 (2.8)
[2]; EQUAL (N = 11), 6-Month rhGH
  Height Velocity: 8.8 (1.8)
[2]; [7]
  Delta Height Velocity, Biological Age (BA): 6.2 (3.4) standard deviations
  Delta Height Velocity, Chronological Age (CA): 7.6 (5.6) standard deviations
[2]; LOW (N = 9), 6-Month rhGH
  Height Velocity: 14.0 (4.1)
[2]; LOW and EQUAL combined, 6-Month GH 0.3 mg/kg/week (N = 20), mean (SD)
  Height Velocity: 11.1 (4.0)
[2]; LOW and EQUAL combined, GH (12-Month): 6 months rhGH after 6 months placebo (N = 20), paired T-test table
  Height Velocity: 11.14 (3.96)
[2]; LOW growth potential / severely GH deficient patients, listed as GH
  growth (height velocity) response, GH compared with MK-0677, in words: extremely sensitive to GH; also recorded: increase in height velocity
[2]; [8]
  Delta height velocity: 12.3 (4.4) cm/year
  Height velocity SD for BA: 10.0 (2.2)
  Height velocity SD for CA: 15.1 (5.1)
[2]; equivalent growth potential, after 6 months of GH ~42 μg/kg/day (N = 11)
  Height Velocity: 8.8 (1.8) cm/year
[2]; low growth potential, after 6 months of GH ~42 μg/kg/day (N = 9)
  Height Velocity: 14.0 (4.1) cm/year
[2]; overall patient group, GH 0.3 mg/kg/week sc vs MK-0677 0.8 mg/kg/day oral
  growth (height velocity) response, GH compared with MK-0677, in words: superior to MK-0677
[2]; patients with low GH secretion potential (Table 3B)
  growth response, GH compared with MK-0677, in words: superior
